Experimental findings from US20020106348A1, “Cancer therapeutics involving the administration of 2-methoxyestradiol and an agent that increases intracellular superoxide anion” (priority 2000, published 2002) are described below.

A word on the IC50: it is the midpoint of a concentration-inhibition curve.

For one assay, the system named is CML cells. The assay is described as follows: MTT assay, primary CML cells. The class given is cell-based, human. Particulars: 30 μM, 3 patients. For orientation: Tetrazolium dyes change colour on reduction, which living cells bring about.
In another assay the target is E. coli MnSOD (Escherichia coli, UniProt P00448). As to the kind of experiment: In vitro SOD activity assay, E. coli MnSOD. The class given is biochemical. Particulars: purified enzyme; read-out: IC50, inhibition of E. coli MnSOD. The method, then: (§1) A spectrophotometric assay was used to determine the effect of 2-methoxyestradiol (2-ME) on SOD activity in vitro with purified enzymes (bovine CuZnSOD from Boehringer Mannheim; human CuZnSOD and E. coli MnSOD from Sigma). The reactions contained 2.5 ml of 50 mM Na2CO3, 0.1 ml of 3 mM xanthine, 0.1 ml of 3 mM EDTA, and 0.1 ml of 0.8 mM XTT (3′-(1-[phenylamino-carbonyl]3,4-tetrazolium)-bis(4-methoxy-6-nitro)benzene-sulfonic acid hydrate), and the indicated concentrations of SOD and 2-ME. Xanthine oxidase (0.1 ml, 64 mU/ml) was added to start the reaction. After incubation at 24° C. for 30 min, the absorbance at 470 nm was measured. The relative activity (RA) of SOD was calculated by the following formula: […]
Chain of E. coli MnSOD (P00448 whole entry): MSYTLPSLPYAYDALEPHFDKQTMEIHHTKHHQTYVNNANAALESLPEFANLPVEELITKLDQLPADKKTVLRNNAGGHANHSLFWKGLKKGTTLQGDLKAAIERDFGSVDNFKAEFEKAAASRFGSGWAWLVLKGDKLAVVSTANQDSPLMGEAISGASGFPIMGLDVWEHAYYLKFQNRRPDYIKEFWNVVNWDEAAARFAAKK
(§2) where a is the absorbance of reaction without SOD, b is the absorbance of reaction with SOD but without 2-ME, c is the absorbance of reaction with SOD in the presence of 2-ME. All values were subtracted by the background reading of the blank. In separate experiments using nitro blue tetrazolium or cytochrome c as substrates for SOD assay, 2-ME and DMSO (as a solvent for 2-ME) interfered with the calorimetric reaction. These artifacts preclude the use of NBT or cytochrome c as the substrates for measuring the effect of 2-ME on SOD activity. Neither 2-ME nor DMSO affect the calorimetric reaction of XTT.

The next assay deals with T1, human CuZnSOD (Homo sapiens, UniProt P00441).
T1 construct: purchased Sigma
T1 sequence (P00441 whole entry): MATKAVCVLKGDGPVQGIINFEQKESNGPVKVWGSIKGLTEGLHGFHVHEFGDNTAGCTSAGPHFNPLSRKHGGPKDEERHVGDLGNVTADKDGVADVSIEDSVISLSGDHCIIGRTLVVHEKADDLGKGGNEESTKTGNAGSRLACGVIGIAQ
As to the kind of experiment: In vitro SOD activity assay (xanthine/xanthine oxidase, XTT), human CuZnSOD. The note with it: purified enzyme; read-out: IC50, inhibition of human CuZnSOD. The class given is biochemical.

Another assay deals with ML-1. The assay is described as follows: MTT assay, ML-1 leukemia cells. The class given is cell-based. The note with it: Homo sapiens, ML1, ML-1 (wt p53).
In the next assay the target is T2, bovine CuZnSOD (Bos taurus, UniProt P00442).
T2 construct: purchased Boehringer Mannheim
T2 sequence (P00442 whole entry): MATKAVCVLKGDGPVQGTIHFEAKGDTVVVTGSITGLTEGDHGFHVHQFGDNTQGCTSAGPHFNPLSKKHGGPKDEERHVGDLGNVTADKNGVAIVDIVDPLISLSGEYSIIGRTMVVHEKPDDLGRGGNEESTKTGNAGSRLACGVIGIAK
The assay is described as follows: In vitro SOD activity assay, bovine CuZnSOD. The class given is biochemical. The note with it: purified enzyme; read-out: IC50, inhibition of bovine CuZnSOD. The method, then: as §1, §2

For a further assay, the system named is HL-60. The assay is described as follows: Release of cytochrome c to cytosol. The class given is cell-based, human.
The next assay deals with normal lymphocytes. The assay is described as follows: DNA fragmentation in normal lymphocytes. The class given is cell-based, human. The note with it: 0-30 μM, additional 3 days.

The compound `COc1cc2c(cc1O)CC[C@@H]1[C@@H]2CC[C@]2(C)[C@@H](O)CC[C@@H]12` [2-ME, 1,3,5(10)-estratrien-2,3,17b-triol 2 methylether] showed a cell survival in the assay with CML cells of 54.7%. The IC50 on E. coli MnSOD was around 20 µM; on human CuZnSOD, around 20 µM; with ML-1, below 1 µM; on bovine CuZnSOD, around 20 µM. In addition, the cytosolic cytochrome c entry is reported as “significant amounts of cytosolic cytochrome c were detected” with HL-60 (at 12 and 14 h); “no cytochrome c was present in cytosol” in the assay on HL-60 (during the first 10 h). In addition, the “nucleosomal DNA fragmentation” value with normal lymphocytes is recorded as “no nucleosomal DNA fragmentation was detected”.
